Reference: ChEMBL document CHEMBL2331467, “Fungal transformation of cedryl acetate and α-glucosidase inhibition assay, quantum mechanical calculations and molecular docking studies of its metabolites” (Eur J Med Chem, 2013)

target: Alpha-glucosidase MAL62 (Saccharomyces cerevisiae, UniProt P07265); assay: Inhibition of yeast alpha-glucosidase using para-nitrophenyl alpha-D-glucopyranoside as substrate by spectrophotometric analysis
Sequence (P07265 whole entry): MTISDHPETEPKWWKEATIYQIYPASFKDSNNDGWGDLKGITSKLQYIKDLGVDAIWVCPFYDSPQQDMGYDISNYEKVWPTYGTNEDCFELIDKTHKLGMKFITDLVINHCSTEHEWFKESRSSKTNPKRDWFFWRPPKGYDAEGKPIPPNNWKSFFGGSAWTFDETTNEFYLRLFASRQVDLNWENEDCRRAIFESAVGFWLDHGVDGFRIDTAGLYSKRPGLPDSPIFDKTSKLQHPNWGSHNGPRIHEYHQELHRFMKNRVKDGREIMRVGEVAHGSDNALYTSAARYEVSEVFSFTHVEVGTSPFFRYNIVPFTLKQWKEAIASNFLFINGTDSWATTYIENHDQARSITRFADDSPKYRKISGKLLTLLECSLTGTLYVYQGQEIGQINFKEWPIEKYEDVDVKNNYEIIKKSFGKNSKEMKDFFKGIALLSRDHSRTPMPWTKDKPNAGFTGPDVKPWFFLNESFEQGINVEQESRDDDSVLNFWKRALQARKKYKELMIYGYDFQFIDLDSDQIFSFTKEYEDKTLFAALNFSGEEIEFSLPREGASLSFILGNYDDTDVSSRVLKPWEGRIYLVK

Row | SMILES | IC50
1 | CC(=O)O[C@]1(C)C[C@H](O)[C@@]23C[C@H]1C(C)(C)[C@@H]2C[C@H](O)[C@H]3C | Not Active
2 | CC(=O)O[C@]1(C)CC[C@@]23C[C@H]1C(C)(C)[C@@H]2CC[C@H]3C [CEDRYL ACETATE] | 94 µM
3 | OC[C@H]1NC[C@H](O)[C@@H](O)[C@@H]1O [DUVOGLUSTAT] | 426 µM

Continued by falling IC50, values first:

Row | IC50 | SMILES
4 | 690 µM | CC(=O)O[C@]1(C)C[C@H](O)[C@@]23C[C@H]1C(C)(C)[C@@H]2CC[C@]3(C)O
5 | 130 µM | C[C@@H]1CC[C@H]2C(C)(C)[C@H]3C[C@@]12CC[C@@]3(C)O [CEDROL]
